According to patent publication US20250339443A1, “METHOD FOR TREATING OR PREVENTING CALCIUM RELEASE-ACTIVATED CALCIUM CHANNEL OR DISCOIDIN DOMAIN RECEPTOR 2 RELATED DISORDERS OR CONDITIONS” (LumiSTAR Biotechnology, Inc., priority 2023, published 2025):

Experiments:
CRAC channel = CRAC channel (Homo sapiens, UniProt Q96D31); experiment: CRAC channel activity / SOCE in HCF; format: cell-based; parameters: endogenous in cells; settings: 10 μM pretreatment 45 min
Description: Cells were co-treated with various compounds (10 μM) and TGF-β1 for 24 hours. Following this, cell lysates were harvested, and the protein expression was assessed by Western blot analysis. FIG. 3D depicts the examination of TGF-β1-induced fibronectin deposition and α-SMA expression in HCF treated with 10 μM of DMSO, BTP2, WRG-28, or Av through immunofluorescence staining. The images were captured using a confocal microscope, the Olympus FV-1000. FIG. 3E, FIG. 3F, and FIG. 3G illustrate the assessment of CRAC channel activity in HCF, MRC5, and rat HSC-T6. These cells were pretreated with 10 μM of BTP2, WRG-28, or Av for 45 min. The evaluation included measuring the second peak of each calcium wave and the rate of entry. Each bar within the figure represents the mean value derived from 77 to 91 cells for HCF, 31 to 49 cells for MRC5, and 43 to 94 cells for HSC-T6. In all the graphs, *, **, and *** denote p-values of <0.05, 0.01, and 0.001, respectively.
Cells cultured on a glass-bottom 96 well plate for 48 hours were treated with different compounds (10 μM) and Fura 2-AM (1 μM) simultaneously in a solution containing 145 mM NaCl, 2.8 mM KCl, 2 mM CaCl2, 2 mM MgCl2, 10 mM D-glucose, 10 mM HEPES, pH 7.4 for 40 minutes in the dark. […] All the images were analyzed by using IGOR Pro software. […]

[1] = tested on: obstruction-induced persistent progression of renal fibrosis; experiment: Kidney transcriptome (RNA sequencing, ingenuity pathway analysis) in RUUO mice; format: in vivo, mouse; settings: treated after the obstruction was released (7/15*d)
Description: FIG. 10A and FIG. 10B display how WRG-28 and Av treatments effectively reduce RUUO-induced overwhelming fibrosis and inflammation. In FIG. 10A, total ribonucleic acid (RNA) extracts from control mice (sham) and mice treated with DMSO, WRG-28, or Av after the obstruction was released (7/15*d) underwent ingenuity pathway analysis (IPA). Both FIG. 10A and FIG. 10B illustrate large-scale transcriptome analysis, further affirming the potent effects of WRG-28 and Av in preventing and protecting kidneys from progressive fibrosis.
Total RNA was extracted from kidneys by homogenizing the samples in TRIzol reagent (Invitrogen). Chloroform was added and the homogenate separates into three layers, the upper clear aqueous containing RNA was transferred into a new tube, and RNA was precipitated by adding isopropanol. The pellets were washed with 70% ethanol and then dissolved in RNase-free water. The RNA passes the quality control, including RNA integrity number (RIN) >7, OD260/OD280 ˜1.8, etc., were sent for sequencing. Transcriptomes were analyzed by ingenuity pathway analysis (IPA).
Total ribonucleic acid (RNA) was extracted from […]: control mice (sham) and mice that received treatments with DMSO, WRG-28, or Av after the obstruction was released (7/15*d). Transcriptomes were then analyzed by ingenuity pathway analysis (IPA). […]

[2] = tested on: BLM-induced pulmonary fibrosis; experiment: Bleomycin-induced lung fibrosis mouse model; format: in vivo; settings: 14 days, Nintedanib 60 mg/kg/day, WRG-28 5 mg/kg/day, Av 5 mg/kg/day
Description: A Bleomycin (BLM)-induced lung fibrosis mouse model was used, and the timelines of operation and drug delivery are depicted in FIG. 11A. […] The hydroxyproline content, serving as a marker of collagen deposition, was extracted from the right lobe and analyzed; the results are shown in FIG. 11C. FIG. 11D depicts histological analysis derived from the left lobe, quantifying the fibrotic area through staining with Masson's Trichrome and Picrosirius red, respectively.
8-to-10-week-old male WT (C57BL/6) mice received intratracheal instillation of bleomycin (bleocin; Nippon Kayaku) at the dose of 3 mg/kg diluted in PBS or PBS only (sham). To study fibrosis, lung samples were collected on day 21 for further analysis.
Lung function was assessed using the flexi Vent system (Scireq, Montreal, QC, Canada). Mice were tracheostomized and ventilated at a rate of 150 breaths/min, tidal volume of 10 ml/kg, and a positive end-expiratory pressure (PEEP) of 2-3 cmH2O. A deep inflation perturbation was used to estimate the inspiratory capacity (IC). Pressure-Volume loops were generated by constant increasing pressure, followed by regular decreasing pressure. Other lung function parameters like resistance, compliance, and elastance were measured by using SnapShot-150.
Levels of hydroxyproline in lung tissues were measured using the Hydroxyproline Colorimetric Assay kit (BioVision, Milpitas, CA, USA). Briefly, 10 mg of frozen right middle lobes homogenized in 100 μL of hydrochloric acid (HCl, 12 N), and hydrolyzed at 120° C. for 3 h. Then, 10 μL of individual samples were used to quantify the absorbance at 560 nm. Hydroxyproline content was presented in μg per lobe.
Mouse left lungs were fixed overnight in 4% paraformaldehyde (PFA), embedded in paraffin, and sectioned in 5 μm thickness for picrosirius red (Abcam, Cambridge, UK) and Masson's trichrome staining (Sigma Aldrich, MO, USA). Measurement of fibrotic area was quantified using ImageJ software (NIH, http://rsbweb.nih.gov/ij/).
The efficacy of WRG-28 and Av in treating pulmonary fibrosis was examined in vivo using a BLM-induced pulmonary fibrosis mouse model for evaluation. 50 μL of Bleomycin (BLM, 3 mg/kg) or PBS were introduced by intratracheal instillation on day 0 to induce fibrosis or serve as the control group, respectively. This was followed by the administration of various compounds for 14 days (Nintedanib: 60 mg/kg/day, WRG-28:5 mg/kg/day, Av: 5 mg/kg/day). Lung function evaluation was conducted on day 21 (FIG. 11A). Nintedanib, an FDA-approved drug for idiopathic pulmonary fibrosis (IPF) treatment, was used as the positive control. The results of the lung function evaluation are depicted in FIG. 11B. […] The degree of these changes can be reversed through treatment with Nintedanib, WRG-28 or Av. […] Histological analysis was conducted through staining techniques to quantify the fibrotic area.

CRAC channel, sequence (Q96D31 whole entry): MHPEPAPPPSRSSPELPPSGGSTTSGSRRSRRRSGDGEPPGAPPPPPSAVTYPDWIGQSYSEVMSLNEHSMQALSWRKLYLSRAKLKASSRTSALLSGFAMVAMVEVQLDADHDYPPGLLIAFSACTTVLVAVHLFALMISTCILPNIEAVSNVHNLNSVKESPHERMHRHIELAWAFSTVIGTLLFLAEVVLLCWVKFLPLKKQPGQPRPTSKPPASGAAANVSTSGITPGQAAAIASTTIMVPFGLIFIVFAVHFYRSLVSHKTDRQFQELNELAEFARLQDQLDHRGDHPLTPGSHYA

CCNS(=O)(=O)c1ccc(COc2ccc3nc4ccc(=O)cc-4oc3c2)cc1 [WRG-28]
SOCE (CRAC channel): notably reduced | inflammatory responses and fibrotic signaling pathways (transcriptome, IPA) [1]: reduced | BLM-induced changes in lung function (capacity, compliance, resistance, elastance) ([2]; day 21): reversed | fibrotic area (Masson's trichrome and Picrosirius Red staining) ([2]; left lobe): effectively reduces | hydroxyproline content (degree of fibrosis) ([2]; right lobe): inhibits the progression of fibrosis
